Solubility data for seven compounds are collected here from patent US20230143604A1, “QW DOSING OF GIP RECEPTOR AGONIST PEPTIDE COMPOUNDS AND USES THEREOF” (TAKEDA PHARMACEUTICAL COMPANY LIMITED, priority 2020, published 2023).

The data set is described as follows: physchem. On the procedure: Solubility of the GIPR peptides may be determined by dissolution in a phosphate buffer followed by quantitation using liquid chromatography, for example, High Performance Liquid Chromatogry (HPLC). An illustrative method is provided. For determination of the solubility of the GIPr agonist peptides, 3 mg of peptides are weighted out in a small glass vial. 100 μL of 200 mM Phosphate buffer pH 7.4 are added and the vial is sonicated/votexed as necessary for a maximum of 1 min. […] If insoluble material is observed in the tube the addition of 100 μL of buffer and mixing is repeated until complete dissolution.
3 mg of peptides are weighted out in a small glass vial. 100 uL of 200 mM Phosphate buffer pH 7.4 are added and the vial is sonicated/votexed as necessary for a maximum of 1 min. […] If insoluble material is observed in the tube the addition of 100 uL of buffer and mixing is repeated until complete dissolution.

Starred links: 1 amine or outer side, 2 acyl side, 3 side chain; linkers in the order of their positions; H or OH if unused. Non-standard residues stand in square brackets, D forms with d. Residues, ends and D or L forms follow the SMILES beside them. Groups on a side chain read outwards from the residue. *: point of attachment. C18 diacid = O=C(O)CCCCCCCCCCCCCCCCC(=O)*; C17 diacid = O=C(O)CCCCCCCCCCCCCCCC(=O)*; γGlu = O=C(O)[C@H](CCC(=O)[*:2])N[*:1]; NMeY = CN[C@@H](Cc1ccc(O)cc1)C(=O)O; AEEA = NCCOCCOCC(=O)O; Aib = CC(C)(N)C(=O)O Where only a bound is given, the exact number is not on record here.

Regarding `CC[C@H](C)[C@H](NC(=O)[C@H](Cc1ccccc1)NC(=O)[C@@H](NC(=O)CNC(=O)[C@H](CCC(=O)O)NC(=O)C(C)(C)NC(=O)[C@H](Cc1ccc(O)cc1)NC)[C@@H](C)O)C(=O)N[C@@H](CO)C(=O)N[C@@H](CC(=O)O)C(=O)N[C@@H](Cc1ccc(O)cc1)C(=O)N[C@@H](CO)C(=O)N[C@H](C(=O)NC(C)(C)C(=O)N[C@@H](CC(C)C)C(=O)N[C@@H](CC(=O)O)C(=O)N[C@@H](CCCNC(=N)N)C(=O)NC(C)(C)C(=O)N[C@@H](C)C(=O)N[C@@H](CCC(N)=O)C(=O)NC(C)(C)C(=O)N[C@@H](CCCCNC(=O)COCCOCCNC(=O)COCCOCCNC(=O)CC[C@H](NC(=O)CC[C@H](NC(=O)CCCCCCCCCCCCCCCCC(=O)O)C(=O)O)C(=O)O)C(=O)N[C@@H](Cc1ccccc1)C(=O)N[C@H](C(=O)N[C@@H](CCC(=O)O)C(=O)N[C@@H](Cc1c[nH]c2ccccc12)C(=O)N[C@@H](CC(C)C)C(=O)N[C@@H](CC(C)C)C(=O)N[C@@H](C)C(=O)N[C@@H](CCC(N)=O)C(=O)N[C@@H](CCCCN)C(=O)NCC(=O)O)C(C)C)[C@@H](C)CC` [Compound 110] (H-[NMeY][Aib]EGTFISDYSI[Aib]LDR[Aib]AQ[Aib]K([AEEA-AEEA-γGlu-γGlu-C18 diacid])FVEWLLAQKG-OH), the solubility was at least 15 mg/mL (pH 7.4) and at least 60 mg/mL (pH 7.4, aqueous buffer).

In turn, `CC[C@H](C)[C@H](NC(=O)[C@H](CO)NC(=O)[C@H](Cc1ccc(O)cc1)NC(=O)[C@H](CC(=O)O)NC(=O)[C@H](CO)NC(=O)[C@@H](NC(=O)[C@H](Cc1ccccc1)NC(=O)[C@@H](NC(=O)CNC(=O)[C@H](CCC(=O)O)NC(=O)C(C)(C)NC(=O)[C@H](Cc1ccc(O)cc1)NC)[C@@H](C)O)[C@@H](C)CC)C(=O)N[C@@H](C)C(=O)N[C@@H](CC(C)C)C(=O)N[C@@H](CC(=O)O)C(=O)N[C@@H](CCCNC(=N)N)C(=O)N[C@@H](CCCCNC(=O)COCCOCCNC(=O)COCCOCCNC(=O)CC[C@H](NC(=O)CCCCCCCCCCCCCCCCC(=O)O)C(=O)O)C(=O)N[C@@H](Cc1c[nH]cn1)C(=O)N[C@@H](CCC(N)=O)C(=O)N[C@@H](CCC(N)=O)C(=O)N[C@@H](CC(N)=O)C(=O)N[C@@H](Cc1ccccc1)C(=O)N[C@H](C(=O)N[C@@H](CC(N)=O)C(=O)N[C@@H](Cc1c[nH]c2ccccc12)C(=O)N[C@@H](CC(C)C)C(=O)N[C@@H](CC(C)C)C(=O)N[C@@H](C)C(=O)N[C@@H](CCC(N)=O)C(=O)N[C@@H](CCCCN)C(=O)O)C(C)C` [Compound 246] (H-[NMeY][Aib]EGTFISDYSIALDRK([AEEA-AEEA-γGlu-C18 diacid])HQQNFVNWLLAQK-OH; C-terminus assumed) registered a solubility (pH 7.4, aqueous buffer) of at least 0.7 mg/mL. For `CC[C@H](C)[C@H](NC(=O)[C@H](CO)NC(=O)[C@H](Cc1ccc(O)cc1)NC(=O)[C@H](CC(=O)O)NC(=O)[C@H](CO)NC(=O)[C@@H](NC(=O)[C@H](Cc1ccccc1)NC(=O)[C@@H](NC(=O)CNC(=O)[C@H](CCC(=O)O)NC(=O)C(C)(C)NC(=O)[C@H](Cc1ccc(O)cc1)NC)[C@@H](C)O)[C@@H](C)CC)C(=O)N[C@@H](C)C(=O)N[C@@H](CC(C)C)C(=O)N[C@@H](CC(=O)O)C(=O)N[C@@H](CCCNC(=N)N)C(=O)NC(C)(C)C(=O)N[C@@H](C)C(=O)N[C@@H](CCC(N)=O)C(=O)NC(C)(C)C(=O)N[C@@H](CCCCNC(=O)COCCOCCNC(=O)COCCOCCNC(=O)CC[C@H](NC(=O)CC[C@H](NC(=O)CCCCCCCCCCCCCCCC(=O)O)C(=O)O)C(=O)O)C(=O)N[C@@H](Cc1ccccc1)C(=O)N[C@H](C(=O)N[C@@H](CC(N)=O)C(=O)N[C@@H](Cc1c[nH]c2ccccc12)C(=O)N[C@@H](CC(C)C)C(=O)N[C@@H](CC(C)C)C(=O)N[C@@H](C)C(=O)N[C@@H](CCC(N)=O)C(=O)N[C@@H](CO)C(=O)N1CCC[C@H]1C(=O)NCC(=O)O)C(C)C` [Compound 125] (H-[NMeY][Aib]EGTFISDYSIALDR[Aib]AQ[Aib]K([AEEA-AEEA-γGlu-γGlu-C17 diacid])FVNWLLAQSPG-OH), the solubility (pH 7.4) was at least 15 mg/mL and the solubility (pH 7.4, aqueous buffer) is at least 30 mg/mL. In the case of `CC[C@H](C)[C@H](NC(=O)[C@H](CO)NC(=O)[C@H](Cc1ccc(O)cc1)NC(=O)[C@H](CC(=O)O)NC(=O)[C@H](CO)NC(=O)[C@@H](NC(=O)[C@H](Cc1ccccc1)NC(=O)[C@@H](NC(=O)CNC(=O)[C@H](CCC(=O)O)NC(=O)C(C)(C)NC(=O)[C@@H](N)Cc1ccc(O)cc1)[C@@H](C)O)[C@@H](C)CC)C(=O)N[C@@H](C)C(=O)NC(C)(C)C(=O)N[C@@H](CC(=O)O)C(=O)N[C@@H](CCCCN)C(=O)N[C@@H](C)C(=O)N[C@@H](CCCCNC(=O)COCCOCCNC(=O)COCCOCCNC(=O)CC[C@H](NC(=O)CCCCCCCCCCCCCCCCC(=O)O)C(=O)O)C(=O)N[C@@H](CCC(N)=O)C(=O)N[C@@H](CCC(N)=O)C(=O)N[C@@H](CC(=O)O)C(=O)N[C@@H](Cc1ccccc1)C(=O)N[C@H](C(=O)N[C@@H](CCC(=O)O)C(=O)N[C@@H](Cc1c[nH]c2ccccc12)C(=O)N[C@@H](CC(C)C)C(=O)N[C@@H](CC(C)C)C(=O)N[C@@H](C)C(=O)N[C@@H](CCC(N)=O)C(=O)N[C@@H](CCCNC(=N)N)C(=O)NCC(=O)O)C(C)C` [Compound 164] (H-Y[Aib]EGTFISDYSIA[Aib]DKAK([AEEA-AEEA-γGlu-C18 diacid])QQDFVEWLLAQRG-OH), the solubility is at least 15 mg/mL (pH 7.4) and at least 30 mg/mL (pH 7.4, aqueous buffer). Compound `CC[C@H](C)[C@H](NC(=O)[C@H](Cc1ccccc1)NC(=O)[C@@H](NC(=O)CNC(=O)[C@H](CCC(=O)O)NC(=O)C(C)(C)NC(=O)[C@H](Cc1ccc(O)cc1)NC)[C@@H](C)O)C(=O)N[C@@H](CO)C(=O)N[C@@H](CC(=O)O)C(=O)N[C@@H](Cc1ccc(O)cc1)C(=O)N[C@@H](CO)C(=O)N[C@H](C(=O)NC(C)(C)C(=O)N[C@@H](CC(C)C)C(=O)N[C@@H](CC(=O)O)C(=O)N[C@@H](CCCNC(=N)N)C(=O)NC(C)(C)C(=O)N[C@@H](C)C(=O)N[C@@H](C)C(=O)NC(C)(C)C(=O)N[C@@H](CCCCNC(=O)COCCOCCNC(=O)COCCOCCNC(=O)CC[C@H](NC(=O)CC[C@H](NC(=O)CCCCCCCCCCCCCCCCC(=O)O)C(=O)O)C(=O)O)C(=O)N[C@@H](Cc1ccccc1)C(=O)N[C@H](C(=O)N[C@@H](CC(N)=O)C(=O)N[C@@H](Cc1c[nH]c2ccccc12)C(=O)N[C@@H](CC(C)C)C(=O)N[C@@H](CC(C)C)C(=O)N[C@@H](C)C(=O)N[C@@H](CCC(N)=O)C(=O)N[C@@H](CO)C(=O)N1CCC[C@H]1C(=O)N[C@@H](CO)C(=O)N[C@@H](CO)C(=O)NCC(=O)N[C@@H](C)C(=O)N1CCC[C@H]1C(=O)N1CCC[C@H]1C(=O)N1CCC[C@H]1C(=O)N[C@@H](CO)C(N)=O)C(C)C)[C@@H](C)CC` [Compound 107] (H-[NMeY][Aib]EGTFISDYSI[Aib]LDR[Aib]AA[Aib]K([AEEA-AEEA-γGlu-γGlu-C18 diacid])FVNWLLAQSPSSGAPPPS-NH2) displayed a solubility (pH 7.4, aqueous buffer, pH 7.4 Phosphate Buffer - Solubility, 200 mM Phosphate buffer pH 7.4) of at least 60 mg/mL and a solubility (pH 7.4, solubility in phosphate buffer at pH 7.4, 200 mM phosphate buffer pH 7.4) of at least 15 mg/mL. Regarding `CC[C@H](C)[C@H](NC(=O)[C@H](Cc1ccccc1)NC(=O)[C@@H](NC(=O)CNC(=O)[C@H](CCC(=O)O)NC(=O)C(C)(C)NC(=O)[C@H](Cc1ccc(O)cc1)NC)[C@@H](C)O)C(=O)N[C@@H](CO)C(=O)N[C@@H](CC(=O)O)C(=O)N[C@@H](Cc1ccc(O)cc1)C(=O)N[C@@H](CO)C(=O)N[C@H](C(=O)NC(C)(C)C(=O)N[C@@H](CC(C)C)C(=O)N[C@@H](CC(=O)O)C(=O)N[C@@H](CCCNC(=N)N)C(=O)NC(C)(C)C(=O)N[C@@H](C)C(=O)N[C@@H](CCC(N)=O)C(=O)NC(C)(C)C(=O)N[C@@H](CCCCNC(=O)COCCOCCNC(=O)COCCOCCNC(=O)CC[C@H](NC(=O)CC[C@H](NC(=O)CCCCCCCCCCCCCCCCC(=O)O)C(=O)O)C(=O)O)C(=O)N[C@@H](Cc1ccccc1)C(=O)N[C@H](C(=O)N[C@@H](CC(N)=O)C(=O)N[C@@H](Cc1c[nH]c2ccccc12)C(=O)N[C@@H](CC(C)C)C(=O)N[C@@H](CC(C)C)C(=O)N[C@@H](C)C(=O)N[C@@H](CCC(N)=O)C(=O)N[C@@H](CO)C(=O)N1CCC[C@H]1C(=O)NCC(=O)O)C(C)C)[C@@H](C)CC` [Compound 85] (H-[NMeY][Aib]EGTFISDYSI[Aib]LDR[Aib]AQ[Aib]K([AEEA-AEEA-γGlu-γGlu-C18 diacid])FVNWLLAQSPG-OH), the solubility reads like this: (pH 7.4) at least 15 mg/mL; (pH 7.4, aqueous buffer) at least 30 mg/mL. On to `CC[C@H](C)[C@H](NC(=O)[C@H](Cc1ccccc1)NC(=O)[C@@H](NC(=O)CNC(=O)[C@H](CCC(=O)O)NC(=O)C(C)(C)NC(=O)[C@H](Cc1ccc(O)cc1)NC)[C@@H](C)O)C(=O)N[C@@H](CO)C(=O)N[C@@H](CC(=O)O)C(=O)N[C@@H](Cc1ccc(O)cc1)C(=O)N[C@@H](CO)C(=O)N[C@H](C(=O)NC(C)(C)C(=O)N[C@@H](CC(C)C)C(=O)N[C@@H](CC(=O)O)C(=O)N[C@@H](CCCNC(=N)N)C(=O)NC(C)(C)C(=O)N[C@@H](C)C(=O)N[C@@H](CCC(N)=O)C(=O)NC(C)(C)C(=O)N[C@@H](CC(=O)O)C(=O)N[C@@H](Cc1ccccc1)C(=O)N[C@H](C(=O)N[C@@H](CC(N)=O)C(=O)N[C@@H](Cc1c[nH]c2ccccc12)C(=O)N[C@@H](CC(C)C)C(=O)N[C@@H](CC(C)C)C(=O)N[C@@H](C)C(=O)N[C@@H](CCCCNC(=O)COCCOCCNC(=O)COCCOCCNC(=O)CC[C@H](NC(=O)CC[C@H](NC(=O)CCCCCCCCCCCCCCCCC(=O)O)C(=O)O)C(=O)O)C(=O)N[C@@H](CCCNC(=N)N)C(=O)NCC(=O)O)C(C)C)[C@@H](C)CC` [Compound 62] (H-[NMeY][Aib]EGTFISDYSI[Aib]LDR[Aib]AQ[Aib]DFVNWLLAK([AEEA-AEEA-γGlu-γGlu-C18 diacid])RG-OH), for which the solubility runs as follows: (pH 7.4) at least 15 mg/mL; (pH 7.4, aqueous buffer) at least 30 mg/mL.

For orientation: solubility means the dissolved amount per volume that the medium holds. Low readings indicate a poorly soluble substance, high ones a readily soluble substance.
